Results published in patent US12527270B2, “Promoting regeneration and transformation in plants” (KWS SAAT SE & CO. KGAA, priority 2020, dated 2026).

Tested on: Beta vulgaris calli
Test: DEX-inducible 35S-BnBBM-GR: shoot formation and callus-based transformation efficiency
Format: cell-based, Beta vulgaris (sugar beet)
Conditions: BnBBM-GR with DEX-induction
Method: By applying the following method callus for Beta vulgaris (sugar beet) has been induced: Micropropagated shoots were used as starting material. Shoots were multiplied in medium containing MS salts, 30 g/l sucrose, 0.25 mg/l benzyladenine (BAP) and 10 g/l agar (pH 6.0). To induce friable callus, leaf explants were incubated for 7-8 weeks in media having MS salts, 15 g/l sucrose, 2 mg/l BAP, and 8 g/l agar (pH 6.0).
For Agrobacterium-mediated transformation friable calli were mounted in media containing MS salts, 30 g/l sucrose, 1 mg/l GA3, 1 mg/l TDZ, and 10 g/l agar (pH 6.0) and kept for 1 week in the dark at 24° C. Agrobacterium harbouring the vector of IPR232-pS-01 (FIG. 12) was grown in medium containing 5 g/l tryptone, 2.5 g/l yeast extract, 1 g/l NaCl, 5 g/l mannitol, 0.1 g/l MgSO4×7H2O, 0.25 g/l KH2PO4, 1 g/l glutamic acid (pH 7.0) supplemented with the appropriate antibiotics, at 28° C., for 24 h. […]
For quantification of transformation rate a) the inducible BnBBM system based on DEX/GR as described above as well as a constitutive overexpression of BnBBM have been tested on an amenable genotype and a recalcitrant genotype. […]

C[C@@H]1C[C@H]2[C@@H]3CCC4=CC(=O)C=C[C@]4(C)[C@@]3(F)[C@@H](O)C[C@]2(C)[C@@]1(O)C(=O)CO [DEX, dexamethasone]
transformation efficiency (amenable genotype): around 70% | transformation efficiency (recalcitrant genotype): around 18%
